Test results taken from patent publication US6440984B1, “Use of aryl-substituted pyrimidines as insecticidal and acaricidal agents” (BASF Aktiengesellschaft, priority 1998, dated 2002).

What was measured:
Assay type in all cases: in vivo
[1] = tested on: Aphis Fabae, Mixed Instar, Bean Aphid (BA); experiment: Bean aphid (BA) foliar spray test, mortality after 2 days; settings: rating scale; for pest or weed control at 300 ppm: Aphis fabae, 48 h, read-out: BA AD-FOLIAR 300 (ppm)
Procedure: (§1) Test solutions are prepared by dissolving the test compound in a 35% acetone in water mixture to give a concentration of 10,000 ppm. Subsequent dilutions are made with water as needed.
Aphis Fabae, Mixed Instar, Bean Aphid (BA)
Pots containing single nasturtium plants (Tropaeolum sp.) about 5 cm tall are infested with about 100-200 aphids one day before the test. Each pot is sprayed with the test solution for 2 revolutions of a 4 rpm turntable in a hood. The spray is directed to give complete coverage of the plants and aphids. The sprayed pots are set on their sides on white trays and held for 2 days, following which mortality estimates are made. Essentially the same method is used with respect to cotton aphid (CA).

[2] = tested on: Spodoptera Eridania, 3rd Instar Larvae, Southern Armyworm (SAW); experiment: Southern armyworm (SAW) leaf-dip test, observations at 5 days; settings: Southern Army Worm, rating scale; for pest or weed control at 1000 ppm: Spodoptera eridania, foliar, 120 h, read-out: SAW 2^ND-FOLIAR 1000 (ppm)
Procedure: as §1
Spodoptera Eridania, 3rd Instar Larvae, Southern Armyworm (SAW)
A Sieva lima bean leaf expanded to 7-8 cm in length is dipped in the test solution with agitation for 3 seconds and allowed to dry in a hood. The leaf is then placed in a 100×10 mm petri dish containing a damp filter paper on the bottom and ten 3rd instar caterpillars. At 5 days, observations are made of mortality, reduced feeding, or any interference with normal molting.

[3] = tested on: Tetranychus Urticae (OP-resistant strain), 2-spotted Spider Mite (TSM); experiment: Two-spotted spider mite (TSM) plant-dip test, mortality after 2 days; settings: rating scale; for pest or weed control at 300 ppm: Tetranychus urticae, 48 h, read-out: TSM AD-FOLIAR 300 (ppm)
Procedure: as §1
Tetranychus Urticae (OP-resistant strain), 2-spotted Spider Mite (TSM)
Sieva lima bean plants with primary leaves expanded to 7-8 cm are selected and cut back to one plant per pot. A small piece is cut from an infested leaf taken from the main colony and placed on each leaf of the test plants. This is done about 2 hours before treatment to allow the mites to move over to the test plant to lay eggs. The size of the cut, infested leaf is varied to obtain about 100 mites per leaf. At the time of test treatment, the piece of leaf used to transfer the mites is removed and discarded. The newly-infested plants are dipped in the test solution for 3 seconds with agitation and set in the hood to dry. After 2 days, one leaf is removed and mortality counts are made.

[4] = tested on: Diabrotica Virgifera Virgifera Leconte, 3rd Instar Western Corn Rootworm (WCR); experiment: Western corn rootworm (WCR) soil test, mortality at 5 days; settings: rating scale; for pest or weed control at 50 ppm: Diabrotica virgifera, 120 h, read-out: WCR 2^ND-SOIL 50 (ppm)
Procedure: Diabrotica Virgifera Virgifera Leconte, 3rd Instar Western Corn Rootworm (WCR) One cc of fine talc is placed in a 30 mL wide-mouth screw-top glass jar. One mL of the appropriate acetone test solution is pipetted onto the talc so as to provide 1.25 mg of active ingredient per jar. The jars are set under a gentle air flow until the acetone is evaporated. The dried talc is loosened, 1 cc of millet seed is added to serve as food for the insects and 25 mL of moist soil is added to each jar. The jar is capped and the contents thoroughly mixed mechanically. Following this, ten 3rd instar rootworms are added to each jar and the jars are loosely capped to allow air exchange for the larvae. The treatments are held for 5 days when mortality counts are made. Missing larvae are presumed dead, since they decompose rapidly and can not be found. The concentrations of active ingredient used in this test correspond approximately to 50 kg/ha.

| SMILES | BA AD-FOLIAR 300 (ppm) [1] | TSM AD-FOLIAR 300 (ppm) [3] | WCR 2^ND-SOIL 50 (ppm) [4] | pest or weed control at 50 ppm [4] | other results |
| --- | --- | --- | --- | --- | --- |
| FC(F)(F)c1cccc(Oc2nccc(-c3ccccc3)n2)c1 [Compound 5] | A (A 0-45% kill) | B (B 45-75% kill) | C (C 76-100% kill) | – | SAW 2^ND-FOLIAR 1000 (ppm) [2]: A (A 0-45% kill) |
| FC(F)(F)c1ccc(Oc2nccc(-c3ccccc3)n2)cc1Cl [Compound 7] | – | – | C (C 76-100% kill) | – | – |
| CCc1ccc(-c2ccnc(Oc3ccc(Cl)c(Cl)c3)n2)cc1 [Compound 12] | – | C (C 76-100% kill) | C (C 76-100% kill) | – | SAW 2^ND-FOLIAR 1000 (ppm) [2]: C (C 76-100% kill) |
| O=[N+]([O-])c1ccc(Oc2nccc(-c3cccc(C(F)(F)F)c3)n2)cc1C(F)(F)F [Compound 19] | A (A 0-45% kill) | – | C (C 76-100% kill) | – | – |
| Fc1ccc(Oc2nccc(-c3cccc(C(F)(F)F)c3)n2)cc1C(F)(F)F [Compound 21] | A (A 0-45% kill) | A (A 0-45% kill) | C (C 76-100% kill) | – | – |
| Fc1ccc(-c2ccnc(Oc3ccc(F)c(C(F)(F)F)c3)n2)cc1 [Compound 22, 2-(3-Trifluoromethyl-4-fluorophenoxy)-4-(4-fluorophenyl)pyrimidine] | – | – | – | 76 to 100% | pest or weed control at 300 ppm [1]: 45 to 75%; pest or weed control at 1000 ppm [2]: 0 to 45%; pest or weed control at 300 ppm [3]: 0 to 45% |
| Fc1ccc(-c2ccnc(Oc3cccc(C(F)(F)F)c3)n2)cc1 [Compound 23] | – | A (A 0-45% kill) | B (B 45-75% kill) | – | – |
| CC(C)(C)c1ccc(-c2ccnc(Oc3ccc(F)c(C(F)(F)F)c3)n2)cc1 [Compound 24] | A (A 0-45% kill) | – | C (C 76-100% kill) | – | – |
| CC(C)(C)c1ccc(-c2ccnc(Oc3ccc(Cl)c(Cl)c3)n2)cc1 [Compound 27] | B (B 45-75% kill) | – | C (C 76-100% kill) | – | – |
| COc1ccc(-c2ccnc(Oc3ccc(Cl)c(C(F)(F)F)c3)n2)cc1 [Compound 35] | – | – | C (C 76-100% kill) | – | – |
| Fc1ccc(Oc2nccc(-c3cccc(OC(F)(F)F)c3)n2)cc1C(F)(F)F [Compound 37] | A (A 0-45% kill) | A (A 0-45% kill) | B (B 45-75% kill) | – | SAW 2^ND-FOLIAR 1000 (ppm) [2]: C (C 76-100% kill) |
| FC(F)(F)Oc1cccc(-c2ccnc(Oc3cccc(C(F)(F)F)c3)n2)c1 [Compound 38] | A (A 0-45% kill) | A (A 0-45% kill) | C (C 76-100% kill) | – | – |
| FC(F)(F)Oc1cccc(-c2ccnc(Oc3ccc(Cl)c(C(F)(F)F)c3)n2)c1 [Compound 39] | – | A (A 0-45% kill) | B (B 45-75% kill) | – | – |
| FC(F)(F)Oc1cccc(-c2ccnc(Oc3cc(C(F)(F)F)cc(C(F)(F)F)c3)n2)c1 [Compound 42] | B (B 45-75% kill) | C (C 76-100% kill) | B (B 45-75% kill) | – | – |
| FC(F)(F)Oc1cccc(-c2ccnc(Oc3ccc(Cl)c(Cl)c3)n2)c1 [Compound 43] | C (C 76-100% kill) | C (C 76-100% kill) | C (C 76-100% kill) | – | – |
| Fc1ccc(Oc2nccc(-c3ccc(OC(F)(F)F)cc3)n2)cc1C(F)(F)F [Compound 47] | A (A 0-45% kill) | B (B 45-75% kill) | – | – | SAW 2^ND-FOLIAR 1000 (ppm) [2]: A (A 0-45% kill) |
| FC(F)(F)Oc1ccc(-c2ccnc(Oc3cccc(C(F)(F)F)c3)n2)cc1 [Compound 48] | B (B 45-75% kill) | B (B 45-75% kill) | – | – | SAW 2^ND-FOLIAR 1000 (ppm) [2]: A (A 0-45% kill) |
| FC(F)(F)Oc1ccc(-c2ccnc(Oc3ccc(Cl)c(Cl)c3)n2)cc1 [Compound 50] | B (B 45-75% kill) | – | C (C 76-100% kill) | – | SAW 2^ND-FOLIAR 1000 (ppm) [2]: A (A 0-45% kill) |
| Fc1cc(-c2ccnc(Oc3ccc(Cl)c(C(F)(F)F)c3)n2)cc(C(F)(F)F)c1 [Compound 51] | – | – | C (C 76-100% kill) | – | SAW 2^ND-FOLIAR 1000 (ppm) [2]: B (B 45-75% kill) |
| Fc1cc(-c2ccnc(Oc3ccccc3)n2)cc(C(F)(F)F)c1 [Compound 54] | C (C 76-100% kill) | C (C 76-100% kill) | – | – | SAW 2^ND-FOLIAR 1000 (ppm) [2]: C (C 76-100% kill) |

| SMILES | BA AD-FOLIAR 300 (ppm) [1] | TSM AD-FOLIAR 300 (ppm) [3] | WCR 2^ND-SOIL 50 (ppm) [4] | pest or weed control at 50 ppm [4] | other results |
| --- | --- | --- | --- | --- | --- |
| Fc1cc(-c2ccnc(Oc3ccc(F)c(Cl)c3)n2)cc(C(F)(F)F)c1 [Compound 56] | – | – | B (B 45-75% kill) | – | – |
| O=[N+]([O-])c1ccc(Oc2nccc(-c3cc(F)cc(C(F)(F)F)c3)n2)cc1C(F)(F)F [Compound 57] | – | – | C (C 76-100% kill) | – | – |
| Fc1cc(-c2ccnc(Oc3cc(Cl)cc(Cl)c3)n2)cc(C(F)(F)F)c1 [Compound 59] | B (B 45-75% kill) | – | C (C 76-100% kill) | – | – |
| Fc1cc(-c2ccnc(Oc3cc(C(F)(F)F)cc(C(F)(F)F)c3)n2)cc(C(F)(F)F)c1 [Compound 60] | – | – | C (C 76-100% kill) | – | SAW 2^ND-FOLIAR 1000 (ppm) [2]: C (C 76-100% kill) |
| CSc1cc(-c2ccc(Cl)c(Cl)c2)nc(Oc2ccc(F)c(C(F)(F)F)c2)n1 [Compound 85, 2-(3-Trifluoromethyl-4-fluorophenoxy)-4-(3,4-dichlorophenyl)-6-thiomethylpyrimidine] | – | – | – | 76 to 100% | – |
| CS(=O)(=O)c1cc(-c2ccc(Cl)c(Cl)c2)nc(Oc2ccc(F)c(C(F)(F)F)c2)n1 [Compound 92, 2-(3-trifluoromethyl-4-fluorophenoxy)-4-(3,4-dichlorophenyl)-6-methylsulfonylpyrimidine] | – | – | – | 76 to 100% | – |
| CSc1cc(-c2ccc(Cl)cc2)nc(Oc2ccc(F)c(C(F)(F)F)c2)n1 [Compound 114] | – | – | – | 76 to 100% | – |
| CSc1cc(-c2cccc(Cl)c2)nc(Oc2ccc(Cl)c(C(F)(F)F)c2)n1 [Compound 125] | – | – | B (B 45-75% kill) | – | – |
| Fc1ccc(Oc2nccc(-c3ccc(C(F)(F)F)cc3)n2)cc1C(F)(F)F [Compound 129] | – | – | – | 45 to 75% | pest or weed control at 300 ppm [1]: 45 to 75%; pest or weed control at 1000 ppm [2]: 0 to 45% |
| CCc1cnc(Oc2cccc(C(F)(F)F)c2)nc1-c1ccc(Cl)cc1 [Compound 131] | – | – | – | 76 to 100% | pest or weed control at 1000 ppm [2]: 0 to 45% |
| CCc1cnc(Oc2ccc(F)c(C(F)(F)F)c2)nc1-c1ccc(Cl)cc1 [Compound 132] | – | – | – | – | pest or weed control at 300 ppm [1]: 76 to 100%; pest or weed control at 1000 ppm [2]: 0 to 45%; pest or weed control at 300 ppm [3]: 45 to 75% |
| Fc1ccc(-c2ccnc(Oc3ccc(C(F)(F)F)c(F)c3)n2)cc1 [Compound 135] | – | – | – | – | pest or weed control at 300 ppm [1]: 0 to 45%; pest or weed control at 1000 ppm [2]: 0 to 45%; pest or weed control at 300 ppm [3]: 0 to 45% |
| Fc1ccc(Oc2nccc(-c3ccc(Cl)cc3)n2)cc1F [Compound 139] | – | – | – | 76 to 100% | pest or weed control at 300 ppm [1]: 76 to 100% |
| FC(F)(F)c1ccc(-c2ccnc(Oc3cccc(C(F)(F)F)c3)n2)cc1 [Compound 144] | – | – | – | 76 to 100% | pest or weed control at 300 ppm [1]: 45 to 75%; pest or weed control at 1000 ppm [2]: 0 to 45% |
| FC(F)(F)c1ccc(-c2ccnc(Oc3ccc(Cl)c(C(F)(F)F)c3)n2)cc1 [Compound 145] | – | – | – | 76 to 100% | pest or weed control at 300 ppm [1]: 45 to 75%; pest or weed control at 1000 ppm [2]: 0 to 45% |
| CCc1cnc(Oc2ccc(F)c(C(F)(F)F)c2)nc1-c1cccc(C(F)(F)F)c1 [Compound 156] | – | – | – | – | pest or weed control at 300 ppm [1]: 76 to 100%; pest or weed control at 1000 ppm [2]: 0 to 45%; pest or weed control at 300 ppm [3]: 45 to 75% |
| CCc1cnc(Oc2ccc(Cl)c(C(F)(F)F)c2)nc1-c1cccc(C(F)(F)F)c1 [Compound 158] | – | – | – | 76 to 100% | pest or weed control at 1000 ppm [2]: 0 to 45% |
| CCCc1cnc(Oc2ccc(F)c(C(F)(F)F)c2)nc1-c1cccc(C(F)(F)F)c1 [Compound 160] | – | – | – | 76 to 100% | pest or weed control at 1000 ppm [2]: 0 to 45%; pest or weed control at 300 ppm [3]: 0 to 45% |
| Cc1cnc(Oc2cccc(C(F)(F)F)c2)nc1-c1ccccc1 [Compound 163] | – | – | – | 76 to 100% | pest or weed control at 300 ppm [1]: 0 to 45%; pest or weed control at 300 ppm [3]: 45 to 75% |
